Measured values reported in EP4494649A1, “PEPTIDES FOR USE IN THE TREATMENT OF AXONAL DAMAGE IN DIABETES” (Universität zu Köln, priority 2023, dated 2025).

Legend:
[1] = system: Cdk5-p35; conditions: embryonal neuronal cells; cited from earlier work
[2] = system: Cdk5-p25; conditions: embryonal neuronal cells; cited from earlier work
[3] = system: diabetic sciatic nerve; assay: Anatomical axon regeneration after sciatic nerve crush (SNC) in streptozotocin-induced T1DM mice; assay type: in vivo; conditions: strep-induced T1DM mice, intrathecal injection 1 day prior and on the day of the SNC, 3 dpi
Protocol: (§1) To model type 1 diabetes mellitus (T1DM), male and female wild-type Ola received a single intraperitoneal injection of 100 mg/kg streptozotocin (strep) or vehicle (veh; 0.1 M citrate buffer, pH 4.5) at 4-6 weeks of age. The efficacy of the treatment was confirmed by assessing blood glucose levels 1 week after injection. Strep mice with over 250 mg/dl of blood glucose were considered diabetic. Thus, diabetes was induced 2 months before sciatic nerve crush.
All surgical procedures on mice adhered to respective animal care guidelines and were approved by the local authorities (LANUV Recklinghausen). For intrathecal AAV2.1 (CRMP2T514A-HA, GFP, tdTomato, and Cre-GFP: titer: ≥7·1012 vg/ml, Addgene), a 5 mm skin incision was made above the L4-L5 spines. The muscle tissue was carefully spread, and 2.5 µl of the viral solution was injected into the cerebrospinal fluid between the L4 and L5 spines using a Nanoject II injector (Drummond Scientific) with three consecutive 833 nl injections with a speed of 23 nl/s and 20 s intervals between injections. The skin was closed using 6-0 sutures. Transduction was performed 2 weeks before sciatic nerve crush (SNC). SNC was performed as described in Gobrecht et al., Nature Communications 5, 4561 (2014) and Gobrecht et al., (2016). In brief, animals were anesthetized by inhalation anaesthesia with 1.5% isoflurane in oxygen, and a skin incision of 5 mm was made above the gluteal region. […]
For assessment of anatomical regeneration, the sciatic nerves were isolated 3 days post-injury (dpi). […] Regeneration of sympathetic fibers was quantified with immunostaining against tyrosine hydroxylase (TH; Novus, 1:500; RRID:AB_10077691).
To verify the regeneration-stimulating effect of the peptide, axonal regeneration was determined in vivo. […] Anatomical regeneration was assessed 3 days post-injury (dpi).
To verify the regeneration-stimulating effect in vivo, axonal regeneration was determined. […] Anatomical regeneration was assessed 3 days post-injury (dpi).

[4] = system: CRMP2; assay: Inhibitory CRMP2 phosphorylation (pCRMP2^T514) in DRG of diabetic mice, Western blot and immunostaining; assay type: in vivo
Protocol: as §1
The intrathecal application of anti-peptide against CDK5 (AP-CDK5) and P5 was performed with the above-described method to assess anatomical regeneration. […]
DRG (L3-L5) or 3 mm of the sciatic nerves proximal to the injury site from three mice per group were homogenized by sonication in 100 µl lysis buffer (20 mM Tris-HCl pH 7.5, 10 mM KCl, 250 mM sucrose, 10 mM NaF, 1mM DTT, 0.1 mM Na3VO4, 1% Triton X-100, 0.1% SDS, 1% protease inhibitors (Merck Millipore) and phosphatase inhibitors (Roche)). […] All antibodies were detected with anti-rabbit or anti-mouse IgG secondary antibodies conjugated to HRP (1:80,000; Sigma). […]
[…] Antibodies were detected with anti-rabbit, anti-goat, or anti-mouse secondary antibodies conjugated to Dylight-405,_Alexa-594, or Alexa-488.
Figure 1H illustrates the timeline of experiments. […] After SNC, SSI and von Frey tests were assessed before the day of SNC, and days 1, 4, 7, 9, 14, 21, 28, and 35 thereafter. […]

[5] = system: diabetic sciatic nerve; assay: von Frey test, functional sensory recovery after SNC in diabetic mice; assay type: in vivo; conditions: i.p. daily 400 µg/kg from the day of SNC, Figure 1M
Protocol: (§2) The intrathecal application of anti-peptide against CDK5 (AP-CDK5) and P5 was performed with the above-described method to assess anatomical regeneration. Either 2 µl AP-CDK5 or P5 (each 4 mg/ml) or vehicle (DMSO) was injected the day before SNC and the day of SNC or the day of SNC and the day after. For analyses of functional recovery, AP-CDKS was injected daily at 400 µg/kg from the day of SNC until the mice were sacrificed. AP-CDKS and P5 (Genescript) were fused to a TAT-sequence for cell membrane penetration and had the following sequence: AP-CDKS: […] and (SEQ ID No. 3) P5: […] (SEQ ID No. 13).
Sensory recovery after SNC was determined at the indicated time points after SNC with the von Frey filament test as described in Gobrecht et al., 2014 and Gobrecht et al., (2016). Tests were performed at the same time of day by the same experimenter. Mice were placed on an elevated metal grid (pore size: 2 mm) and allowed to acclimate for 15 min before testing. […] Statistical significances of intergroup differences were evaluated using two-way ANOVA followed by the Holm Sidak post hoc test.
Figure 1H illustrates the timeline of experiments. […] After SNC, SSI and von Frey tests were assessed before the day of SNC, and days 1, 4, 7, 9, 14, 21, 28, and 35 thereafter.

[6] = system: diabetic sciatic nerve; assay: Static sciatic index (SSI), functional motor recovery after SNC in diabetic mice; assay type: in vivo
Protocol: as §2
Motor recovery after SNC was determined by calculating the SSI as described in Baptista AF et al., 2007, J Neurosci Methods 161, 259-264 and Gobrecht et al., Nature Communications 5, 1-10 (2014). […] Toe spreading on contralateral (C, left) and ipsilateral (I, right) sides relative to the SNC was assessed by measuring paw_length (PL) and the_distance between the first and fifth toe (FF). The SSI was then calculated using the previously described formula: SSI = 101.3((IFF-CFF)/CFF)-54.03((IPL-CPL)/CPL)-9.5 in as described in Baptista AF et al., 2007, J Neurosci Methods 161, 259-264.
Data represent mean SSI±SEM per experimental group. Statistical significances of intergroup differences were evaluated using two-way ANOVA followed by the Holm Sidak post hoc test. […]

Sequence	activity of endogenous Cdk5-p35 [1]	deregulated Cdk5-p25 activity [2]	anatomical regeneration of motor fibers ([3]; ChAT staining)	anatomical regeneration of sensory fibers ([3]; SCG10 staining)	anatomical regeneration of sympathetic fibers ([3]; TH staining)	CRMP2 inactivation in neurons (pCRMP2^T514 immunostaining) ([4]; DRG (L6), strep-treated mice, i.p. injection, tissue harvested after completing functional recovery, Figure 1N)	CRMP2 inactivation in DRG neurons (pCRMP2^T514 Western blot) ([4]; L4-L6 DRG, strep T1DM mice, i.p. every day from the SNC until sacrifice, Figures 1I, 1J)	functional sensory recovery determined by the von Frey test [5]	functional motor recovery assessed by static sciatic index (SSI) ([6]; i.p. daily 400 µg/kg from the day of SNC, Figure 1L)	axon regeneration (pictures of the injured paw) ([6]; i.p. daily from SNC, before and 1, 7, 14, 21, 28, 35 dpi, Figure 1K)
KEAFWDRCLSVINLMSSKMLQINA (listed as Homo sapiens) [p5]	did not affect	inhibited	–	–	–	–	–	–	–	–
LVESCKEAFWDRCLSVINLMSSKMYARAARRAARR (REGION 1..35: note = Fusion peptide) [AP-CDK5]	–	–	accelerated	accelerated	accelerated	strongly reduced	strongly reduced	provide a functional effect	provide a functional effect	accelerated
